Consider 18 molecules from patent publication US20260355196A1, “INHIBITORS AND DEGRADERS OF PIP4K PROTEIN” (Larkspur Biosciences, Inc., priority 2023, published 2026).

Structures are written as SMILES.

The first test deals with T1, PIP4K2C (Homo sapiens, UniProt Q8TBX8).
T1 sequence (Q8TBX8 1-421): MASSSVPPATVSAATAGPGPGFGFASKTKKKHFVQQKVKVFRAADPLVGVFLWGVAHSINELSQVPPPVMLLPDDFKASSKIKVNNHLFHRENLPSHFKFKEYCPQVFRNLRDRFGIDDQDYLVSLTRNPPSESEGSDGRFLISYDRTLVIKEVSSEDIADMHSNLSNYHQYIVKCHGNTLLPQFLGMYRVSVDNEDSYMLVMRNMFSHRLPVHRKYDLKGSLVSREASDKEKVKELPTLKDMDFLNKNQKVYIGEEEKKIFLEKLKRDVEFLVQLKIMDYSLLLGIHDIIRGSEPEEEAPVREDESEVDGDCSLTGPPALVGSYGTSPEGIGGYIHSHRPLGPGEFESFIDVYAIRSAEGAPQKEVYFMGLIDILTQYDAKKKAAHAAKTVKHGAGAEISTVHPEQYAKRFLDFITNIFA
Description: HiBiT PIP4K2C degradation assay in MOLT-4 cells (endogenous PIP4K2C C-terminally tagged with HiBiT). It counts as cell-based. The arrangement: untagged in primary human PBMCs and monocyte-derived dendritic cells. As to conditions: 6 hours of incubation time, rather than 24 hours; MOLT-4, top concentration 10 micromolar; read-out: HiBIT-degradation MOLT4 PIP4k2C DC50 (6 hours, marked *). The essentials: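 Luminescent HiBiT lytic readout of residual PIP4K2C-HiBiT (CRISPR knock-in, MOLT-4, phenol red-free RPMI-1640 + 10% FBS). Cells exposed 6 or 24 h at 37 C to compound, top 10 micromolar, 3-fold, 10 points, duplicate. Hill fit (Levenberg-Marquardt) gives DC50.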
In general terms: HiBiT is a short tag that completes a luciferase, so light tracks the accessible tagged protein.
Consider `O=C1CCC(Nc2ccc(N3CCC(CC4(O)CCN(C(=O)[C@H]5CC[C@H](Nc6ncc(F)c(-c7cccc(-n8ccccc8=O)c7)n6)CC5)CC4)CC3)c(F)c2)C(=O)N1` (stereo partly drawn) [Compound 691, trans-3-((3-fluoro-4-(4-((1-(4-((5-fluoro-4-(3-(2-oxopyridin-1 (2H)-yl)phenyl)pyrimidin-2-yl)amino)cyclohexane-1-carbonyl)-4-hydroxypiperidin-4-yl)methyl)piperidin-1-yl)phenyl)amino)piperidine-2,6-dione], for which the DC50 (as a rule, the concentration giving 50% degradation) is below 500 nM.

With `O=C1CC[C@@H](Nc2ccc(C3CCN(CC4CCN(C(=O)[C@H]5CC[C@H](Nc6ncc(F)c(-c7cccc(-c8ccc[nH]c8=O)c7)n6)CC5)CC4)CC3)c(F)c2)C(=O)N1` (single isomer, unassigned) [Compound 421], the half-maximal degradation concentration (DC50) was below 500 nM.

Consider `O=C1CCC(Nc2ccc(N3CCN(C[C@H]4CC[C@H](CC(=O)N[C@H]5CC[C@H](Nc6ncc(F)c(-c7cccc(N8CCCCC8=O)c7)n6)CC5)CC4)CC3)c(F)c2)C(=O)N1` (stereo partly drawn) [Compound 560, trans-2-((1r,4R)-4-((4-(4-((2,6-dioxopiperidin-3-yl)amino)-2-fluorophenyl)piperazin-1-yl)methyl)cyclohexyl)-N-((1r,4R)-4-((5-fluoro-4-(3-(2-oxopiperidin-1-yl)phenyl)pyrimidin-2-yl)amino)cyclohexyl)acetamide], for which the 50% degradation concentration (DC50) was below 500 nM.

Take `O=C1CCC(Nc2ccc(C3CCN(CC4(O)CCN(C(=O)[C@H]5CC[C@H](Nc6ncc(F)c(-c7cccc(C(=O)N8CC[C@H](O)C8)c7)n6)CC5)CC4)CC3)c(F)c2)C(=O)N1` (stereo partly drawn) [Compound 481, trans-3-((3-fluoro-4-(1-((1-(4-((5-fluoro-4-(3-((S)-3-hydroxypyrrolidine-1-carbonyl)phenyl)pyrimidin-2-yl)amino)cyclohexane-1-carbonyl)-4-hydroxypiperidin-4-yl)methyl)piperidin-4-yl)phenyl)amino)piperidine-2,6-dione]: the half-maximal degradation concentration (DC50) was below 500 nM.

Turning to `O=C1CCC(Nc2ccc(N3CCN([C@H]4CC[C@H](NC(=O)[C@H]5CC[C@H](Nc6ncc(F)c(-c7cccc(N8CCCOC8=O)c7)n6)CC5)CC4)CC3)c(F)c2)C(=O)N1` (stereo partly drawn) [Compound 490, trans-N-(trans-4-(4-(4-((2,6-dioxopiperidin-3-yl)amino)-2-fluorophenyl)piperazin-1-yl)cyclohexyl)-4-((5-fluoro-4-(3-(2-oxo-1,3-oxazinan-3-yl)phenyl)pyrimidin-2-yl)amino)cyclohexane-1-carboxamide], the half-maximal degradation concentration (DC50) was below 500 nM.

For `O=C1CCC(Nc2ccc(N3CCN(C4CCN(C(=O)O[C@H]5CC[C@H](Nc6ncc(F)c(-c7cccc(-c8ccccc8)c7)n6)CC5)CC4)CC3)c(F)c2)C(=O)N1` (stereo partly drawn) [Compound 664, trans-[4-[[5-fluoro-4-(3-phenylphenyl)pyrimidin-2-yl]amino]cyclohexyl]4-[4-[4-[(2,6-dioxo-3-piperidyl)amino]-2-fluoro-phenyl]piperazin-1-yl]piperidine-1-carboxylate], the half-maximal degradation concentration (DC50) is below 500 nM.

`O=C1CCC(Nc2ccc(N3CCC(N4CCC(NC(=O)[C@H]5CC[C@H](Nc6ncc(F)c(-c7cccc(N8CCOCC8=O)c7)n6)CC5)CC4)CC3)c(F)c2)C(=O)N1` (stereo partly drawn) [Compound 532, trans-N-(1′-(4-((2,6-dioxopiperidin-3-yl)amino)-2-fluorophenyl)-[1,4′-bipiperidin]-4-yl)-4-((5-fluoro-4-(3-(3-oxomorpholino)phenyl)pyrimidin-2-yl)amino)cyclohexane-1-carboxamide]: the DC50 is below 500 nM.

On to `O=C1CCC(Nc2ccc(C3CCN([C@H]4CC[C@H](NC(=O)[C@H]5CC[C@H](Nc6ncc(F)c(-c7ccnc(N8CCCCC8=O)c7)n6)CC5)CC4)CC3)c(F)c2)C(=O)N1` (stereo partly drawn) [Compound 549, trans-N-(trans-4-(4-(4-((2,6-dioxopiperidin-3-yl)amino)-2-fluorophenyl)piperidin-1-yl)cyclohexyl)-4-((5-fluoro-4-(2-(2-oxopiperidin-1-yl)pyridin-4-yl)pyrimidin-2-yl)amino)cyclohexane-1-carboxamide], for which the DC50 was below 500 nM.

Consider `O=C1CCC(Nc2ccc(C3CCN([C@H]4CC[C@H](NC(=O)[C@H]5CC[C@H](Nc6ncc(F)c(-c7ccnc(C8(O)CCC8)c7)n6)CC5)CC4)CC3)c(F)c2)C(=O)N1` (stereo partly drawn) [Compound 548, trans-N-(trans-4-(4-(4-((2,6-dioxopiperidin-3-yl)amino)-2-fluorophenyl)piperidin-1-yl)cyclohexyl)-4-((5-fluoro-4-(2-(1-hydroxycyclobutyl)pyridin-4-yl)pyrimidin-2-yl)amino)cyclohexane-1-carboxamide], for which the DC50 is below 500 nM.

`O=C1CCC(Nc2ccc(N3CCC(N4CCC(C(=O)N[C@H]5CC[C@H](Nc6ncc(F)c(-c7cccc(N8CCOCC8=O)c7)n6)CC5)CC4)CC3)c(F)c2)C(=O)N1` (stereo partly drawn) [Compound 585, trans-1′-(4-((2,6-dioxopiperidin-3-yl)amino)-2-fluorophenyl)-N-(4-((5-fluoro-4-(3-(3-oxomorpholino)phenyl)pyrimidin-2-yl)amino)cyclohexyl)-[1,4′-bipiperidine]-4-carboxamide]: the DC50 is below 500 nM.

As to `O=C1CCC(Nc2ccc(C3CCN([C@H]4CC[C@H](C(=O)N[C@H]5CC[C@H](Nc6ncc(F)c(-c7cccc(N8CCCOC8=O)c7)n6)CC5)CC4)CC3)c(F)c2)C(=O)N1` (stereo partly drawn) [Compound 576, trans-(1r,4R)-4-(4-(4-((2,6-dioxopiperidin-3-yl)amino)-2-fluorophenyl)piperidin-1-yl)-N-((1r,4R)-4-((5-fluoro-4-(3-(2-oxo-1,3-oxazinan-3-yl)phenyl)pyrimidin-2-yl)amino)cyclohexyl)cyclohexane-1-carboxamide], the 50% degradation concentration (DC50) was below 500 nM.

On to `O=C1CC[C@@H](Nc2ccc(N3CCN([C@H]4CC[C@H](C(=O)N[C@H]5CC[C@H](Nc6ncc(F)c(-c7cccc(N8CCCCC8=O)c7)n6)CC5)CC4)CC3)c(F)c2)C(=O)N1` [Compound 412, trans-(1r,4R)-4-(4-(4-((2,6-dioxopiperidin-3-yl)amino)-2-fluorophenyl)piperazin-1-yl)-N-((1r,4R)-4-((5-fluoro-4-(3-(2-oxopiperidin-1-yl)phenyl)pyrimidin-2-yl)amino)cyclohexyl)cyclohexane-1-carboxamide], for which the DC50 is below 500 nM.

Turning to `O=C1CCC(Nc2ccc(N3CCC(N4CC5(CC(OC(=O)N6CCC(Nc7ncc(F)c(-c8cccc(-n9ccccc9=O)c8)n7)CC6)C5)C4)CC3)c(F)c2)C(=O)N1` (stereo not drawn) [Compound 637, 2-(1-(4-((2,6-dioxopiperidin-3-yl)amino)-2-fluorophenyl)piperidin-4-yl)-2-azaspiro[3.3]heptan-6-yl 4-((5-fluoro-4-(3-(2-oxopyridin-1 (2H)-yl)phenyl)pyrimidin-2-yl)amino)piperidine-1-carboxylate], the DC50 was below 500 nM.

Still in this test, the particulars now being: 24 hours incubation, MOLT-4, top concentration 10 micromolar; read-out: HiBIT-degradation MOLT4 PIP4k2C 24 hours DC50.
On to `Cn1nc(C2CCC(=O)NC2=O)c2ccc(C3CCN(CC4CCN(CC(=O)N5CCC(Nc6ncc(Cl)c(-c7cccc(-c8ccc(F)cc8)c7)n6)CC5)CC4)CC3)cc21` (stereo not drawn) [Compound 277, 3-(6-(1-((1-(2-(4-((5-chloro-4-(4′-fluoro-[1,1′-biphenyl]-3-yl)pyrimidin-2-yl)amino)piperidin-1-yl)-2-oxoethyl)piperidin-4-yl)methyl)piperidin-4-yl)-1-methyl-1H-indazol-3-yl)piperidine-2,6-dione], for which the DC50 lay within 500 to 1000 nM.

As for `O=C1CCC(n2c(=O)oc3cc(N4CCC(CN5CCC(CC(=O)N[C@H]6CC[C@H](Nc7ncc(F)c(-c8cccc(-n9ccccc9=O)c8)n7)CC6)CC5)CC4)ccc32)C(=O)N1` (stereo partly drawn) [Compound 358, trans-2-(1-((1-(3-(2,6-dioxopiperidin-3-yl)-2-oxo-2,3-dihydrobenzo[d]oxazol-6-yl)piperidin-4-yl)methyl)piperidin-4-yl)-N-(4-((5-fluoro-4-(3-(2-oxopyridin-1(2H)-yl)phenyl)pyrimidin-2-yl)amino)cyclohexyl)acetamide], the DC50 is below 500 nM.

Take `O=C1CCC(Nc2ccc(C3CCN(CC4CCN(CC(=O)N5CCC(Nc6ncc(Cl)c(-c7cccc(-c8ccccc8)c7)n6)CC5)CC4)CC3)cc2)C(=O)N1` (stereo not drawn) [Compound 53, 3-((4-(1-((1-(2-(4-((4-([1,1′-biphenyl]-3-yl)-5-chloropyrimidin-2-yl)amino)piperidin-1-yl)-2-oxoethyl)piperidin-4-yl)methyl)piperidin-4-yl)phenyl)amino)piperidine-2,6-dione]: the 50% degradation concentration (DC50) lay within 500 to 1000 nM.

In the case of `O=C(COc1cccc2c1C(=O)N(C1CCC(=O)NC1=O)C2=O)NCCCCCCCCCC(=O)N1CCC(Nc2ncc(Cl)c(-c3cccc(-c4ccccc4)c3)n2)CC1` (stereo not drawn) [Compound 66, N-(10-(4-((4-([1,1′-biphenyl]-3-yl)-5-chloropyrimidin-2-yl)amino)piperidin-1-yl)-10-oxodecyl)-2-((2-(2,6-dioxopiperidin-3-yl)-1,3-dioxoisoindolin-4-yl)oxy)acetamide], the 50% degradation concentration (DC50) is 500 to 1000 nM.

Regarding `O=C1CCC(Nc2ccc(N3CCC(N4CCC(CNC(=O)[C@H]5CCC[C@@H](Nc6ncc(F)c(-c7cccc(-n8ccccc8=O)c7)n6)C5)CC4)CC3)c(F)c2)C(=O)N1` (relative stereo) [Compound 361, cis-N-((1′-(4-((2,6-dioxopiperidin-3-yl)amino)-2-fluorophenyl)-[1,4′-bipiperidin]-4-yl)methyl)-3-((5-fluoro-4-(3-(2-oxopyridin-1(2H)-yl)phenyl)pyrimidin-2-yl)amino)cyclohexane-1-carboxamide], the 50% degradation concentration (DC50) was below 500 nM.
